Measured values taken from patent publication US5877165A, “Boronated porhyrins and methods for their use” (priority 1997, dated 1999).

Key:
Type in all cases: in vivo, BALB/c mice
[1] = Experiment I: hematological, chemical and enzymatic tests, mice bearing KHJJ tumors (Table 7); settings: 3 ip over 8 hr, ZnDPE 118, NiTCP 183 μg/gbw, median (range)
Method: Lipophilic porphyrins 1, 2, 4, 5, and 6 were injected as emulsions in either 3% or 9% CRM and either 6% or 18% PRG with saline as previously described in Example 2 above. Water soluble porphyrins 3 and 7 were dissolved in saline. BPA was solubilized as a fructose complex.
Female BALB/c mice (from Taconic Farms, Germantown, N.Y.) (20-25 g) were implanted with either KHJJ or EMT-6 tumors according to the procedure described in Example 3A above.
(§1) Under deep halothane anesthesia leading to euthanasia, right ventricular blood was collected in Microtainer (Becton-Dickinson, Rutherford, N.J.) tubes containing EDTA for hematological analyses and boron assays of whole blood and in Microtainer™ tubes containing lithium heparin for chemical analyses and enzyme assays of blood plasma. Tumor, brain, fat, muscle, and liver tissues were sampled at necropsy for boron analyses.
In Experiment I, NiTCP (183 μg/gbw) and lipophilic, heme derivative ZnDPE (118 μg/gbw) were compared in mice bearing KHJJ mammary tumors. The porphyrins were given as 3% CRM and 6% PrG emulsions in 3 ip injections given over 8 hrs. Animals were euthanized 15 hr, 39 hr, and 90 hr after the last injection.
Hematological, chemical and enzymatic tests were carried out as described in Example 3 above. Nonparametric statistical analyses were carried out using the Wilcoxon Two-Sample Test in accordance with procedures described in Slatkin, D.N., 1995. Boron analyses were conducted in accordance with the procedure described in Example 3 above. Fat and liver tissues were assayed for ^10 B by prompt-gamma spectroscopy as described in Fairchild, et al., 1986. These measurements were multiplied by 5.0 to give total boron concentrations due to the use of boron of natural isotope abundance in the syntheses of all boronated porphyrins reported.

KHJJ mammary carcinomas = test: Boron biodistribution, mice with KHJJ mammary carcinomas (Examples 4-7, Table 1); settings: mouse, in vivo; for Boron Concentration: Blood / Boron Concentration: Brain / Boron Concentration: Tumor: ip, 160 mg/kg
Method: Female BALB/c mice (Taconic Farms, Germantown, N.Y.) (20-25 g) were implanted with either KHJJ or EMT-6 tumors. For KHJJ tumors, 1-3 mm^3 tumor fragments were implanted subcutaneously (s.c.) in the dorsal thorax of each mouse using an 18-gauge trocar. For EMT-6 tumors, 2.5×10^5 cells were implanted similarly using a 27-gauge needle. EMT-6 tumor cells were grown alternately in vivo and in vitro. Single-cell suspensions were prepared from mouse-grown tumors by trypsinization. These were grown in cell culture for several passages and then were frozen in 10% DMSO and stored in liquid nitrogen. Prior to implantation in mice, the cells were thawed and grown in tissue culture in Alpha-MEM with 10% FBS for several passages.
as §1
Direct current plasma-atomic emission spectroscopy [DCP-AES] (ARL/Fisons Model SS-7) was used (detection limit: 0.1 μg/ml). Samples (50-130 mg) were digested at 60° C. with sulfuric acid:nitric acid (1:1). Triton X-100 and water were added to give final concentrations of ≈50 mg tissue/ml, 15% total acid v/v and 5% Triton X-100 v/v. Fat and liver tissues were assayed for ^10 B by prompt-gamma spectroscopy (Fairchild, et al., 1986). The prompt-gamma measurements were multiplied by 5.0 to give the total boron concentrations due to the use of boron of natural isotope abundance in the syntheses of all boronated porphyrins reported.
Seven mice having KHJJ mammary carcinomas were given one intraperitoneal (i.p.) injection of 900 μg/g body weight of the boron compound presently used for BNCT of malignant brain tumors, p-boronophenylalanine (BPA) complexed with fructose. BPA was prepared in accordance with procedure described in Coderre, et al., 1996 incorporated herein by reference in its entirety as if set forth in full.
Mice were euthanized during the collection of blood while under Halothane anesthesia. At necropsy, the apparent states of structural integrity, consistency, color or abnormality, if any, of tissues were observed and tumor, brain and liver tissues were collected from each mouse for boron analysis.
Eight mice having KHJJ mammary carcinomas were injected with the NiTCP solution in the amount of 160 μg NiTCP/g body weight (36 μgB/g body weight) in six i.p. injections over 20 hours.
(§2) Six hours after the mice were last injected with NiTCP, mice were euthanized during the collection of blood while under Halothane anesthesia and right ventricular blood was collected from each mouse for hematological and chemical analysis without pooling the samples. At necropsy, the apparent states of structural integrity, consistency, color, or abnormality, if any, of tissues were observed and tumor, brain and liver tissues were collected from each mouse for boron analysis without pooling the samples.
Seven mice having KHJJ mammary carcinomas were injected with the NiTCP solution in the amount of 160 μg NiTCP/g body weight (36 μgB/g body weight) in six i.p. injections over 20 hours.
as §2, with “Sixteen hours” for “Six hours”, “were” for “were last”, “boron analysis. […]” for “boron analysis without pooling the samples.”

[2] = Toxicity testing of NiTCP, MnTCP and CuTCP in normal mice (Example 13, Table 3); settings: 4 days after last of 6 ip injections
Method: Levels of glucose [GLU], blood urea nitrogen [BUN], blood creatinine [BCR], alanine transaminase [ALT], aspartate transaminase [AST], alkaline phosphatase [ALP], total protein [TPR], albumin [ALB], and creatine phosphokinase [CPK] were determined in blood plasma using a Cobas Fara II microanalysis system. Blood platelets [PLT] and white blood cells [WBC] were counted using a Serono-Baker System 9000 automated hematology microanalyzer.
Compounds prepared as in Example 1B and 1C were formulated with 6% Cremophor EL [CRM] and 12% propylene glycol [PrG] in saline. Total doses of MnTCP and CuTCP of 174 and 223 μg/g body weight, respectively, were administered to normal BALB/c mice. Each mouse was given 6 intraperitoneal [ip] injections over a period of 32 hours. Mice were euthanized 4 days after the last injection and chemical, enzymatic and hematological analyses of their blood were compared to those of similar mice given NiTCP at a dose of 252 μg/g body weight.

Nickel Tetracarboranylphenylporphyrin [NiTCP]
% Δw ([1]; 15 hr): 0.5 (^- 3.2-4.1) % | ALP ([1]; 15 hr): 80 (56-86) | ALT ([1]; 15 hr): 28 (21-32) | AST ([1]; 15 hr): 81 (60-146) | BCR ([1]; 15 hr): 0.5 (0.4-0.5) | BUN ([1]; 15 hr): 32 (27-41) | CPK ([1]; 15 hr): 66 (41-289) | GLU ([1]; 15 hr): 199 (183-262) | PLT ([1]; 15 hr): 733 (579-956) | % Δw ([1]; 39 hr): 3.9 (3.0-9.2) % | ALP ([1]; 39 hr): 71 (57-88) | ALT ([1]; 39 hr): 32 (27-153) | AST ([1]; 39 hr): 108 (76-442) | BCR ([1]; 39 hr): 0.4 (0.3-0.4) | BUN ([1]; 39 hr): 35 (32-43) | CPK ([1]; 39 hr): 167 (91-227) | GLU ([1]; 39 hr): 210 (183-260) | PLT ([1]; 39 hr): 826 (790-927) | % Δw ([1]; 90 hr): 7.8 (5.9-12.1) % | ALP ([1]; 90 hr): 40 (37-80) | ALT ([1]; 90 hr): 27 (26-33) | AST ([1]; 90 hr): 138 (46-285) | BCR ([1]; 90 hr): 0.4 (0.4-0.4) | BUN ([1]; 90 hr): 24 (14-34) | CPK ([1]; 90 hr): 69 (52-94) | GLU ([1]; 90 hr): 218 (172-242) | PLT ([1]; 90 hr): 790 (553-839) | boron delivered to tumor relative to BPA (KHJJ mammary carcinomas): twice the amount of boron to tumor than that of BPA | Boron Concentration: Blood (KHJJ mammary carcinomas; 16 h): 13.2 (4.2-30.5) μg B/g | Boron Concentration: Brain (KHJJ mammary carcinomas; 16 h): 3.8 (2.4-5.0) μg B/g | Boron Concentration: Tumor (KHJJ mammary carcinomas; 16 h): 25.5 (16.2-38.7) μg B/g | Boron Concentration: Blood (KHJJ mammary carcinomas; 78 h): 0.2 (0.4-5.8) μg B/g | Boron Concentration: Brain (KHJJ mammary carcinomas; 78 h): 1.7 (0.1-0.2) μg B/g | Boron Concentration: Tumor (KHJJ mammary carcinomas; 78 h): 17.0 (9.2-28.2) μg B/g | toxicity / thrombocytopenia, in words [2]: nontoxic
